# Source: article doi:10.1101/2023.11.24.568596v1 (biorxiv, 2023)
# Assays:
# Settings in all cases: binder
# [1] = biological target: SLK (Homo sapiens, UniProt Q9H2G2)
# [2] = biological target: STLK3 (Homo sapiens, UniProt Q9UEW8)
# [3] = biological target: TAF1 (Homo sapiens, UniProt P21675)
# [4] = biological target: T1, TLK1 (Homo sapiens, UniProt Q9UKI8)
# T1 sequence (Q9UKI8 1-766): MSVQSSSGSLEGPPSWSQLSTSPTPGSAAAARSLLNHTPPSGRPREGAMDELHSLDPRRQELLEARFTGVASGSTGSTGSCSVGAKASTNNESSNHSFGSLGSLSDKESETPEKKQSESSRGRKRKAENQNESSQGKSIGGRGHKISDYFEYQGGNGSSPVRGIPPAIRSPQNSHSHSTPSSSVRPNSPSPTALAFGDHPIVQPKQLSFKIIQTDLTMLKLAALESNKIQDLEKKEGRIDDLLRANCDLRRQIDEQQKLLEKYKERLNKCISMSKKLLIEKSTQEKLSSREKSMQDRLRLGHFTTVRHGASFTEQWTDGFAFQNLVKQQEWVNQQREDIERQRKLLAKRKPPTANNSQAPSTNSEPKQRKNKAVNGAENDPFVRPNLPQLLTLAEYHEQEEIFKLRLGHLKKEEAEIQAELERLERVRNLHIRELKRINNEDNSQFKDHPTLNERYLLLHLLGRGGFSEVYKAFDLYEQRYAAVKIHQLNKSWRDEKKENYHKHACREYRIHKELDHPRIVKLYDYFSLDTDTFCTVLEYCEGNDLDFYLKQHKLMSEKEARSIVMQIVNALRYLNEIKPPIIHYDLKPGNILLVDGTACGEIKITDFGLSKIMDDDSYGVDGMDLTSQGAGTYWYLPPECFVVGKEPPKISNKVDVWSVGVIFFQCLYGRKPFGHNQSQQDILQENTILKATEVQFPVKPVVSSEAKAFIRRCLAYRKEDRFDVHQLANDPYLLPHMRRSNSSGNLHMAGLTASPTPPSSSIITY
# [5] = biological target: T2, TTK (Homo sapiens, UniProt P33981)
# T2 sequence (P33981 1-857): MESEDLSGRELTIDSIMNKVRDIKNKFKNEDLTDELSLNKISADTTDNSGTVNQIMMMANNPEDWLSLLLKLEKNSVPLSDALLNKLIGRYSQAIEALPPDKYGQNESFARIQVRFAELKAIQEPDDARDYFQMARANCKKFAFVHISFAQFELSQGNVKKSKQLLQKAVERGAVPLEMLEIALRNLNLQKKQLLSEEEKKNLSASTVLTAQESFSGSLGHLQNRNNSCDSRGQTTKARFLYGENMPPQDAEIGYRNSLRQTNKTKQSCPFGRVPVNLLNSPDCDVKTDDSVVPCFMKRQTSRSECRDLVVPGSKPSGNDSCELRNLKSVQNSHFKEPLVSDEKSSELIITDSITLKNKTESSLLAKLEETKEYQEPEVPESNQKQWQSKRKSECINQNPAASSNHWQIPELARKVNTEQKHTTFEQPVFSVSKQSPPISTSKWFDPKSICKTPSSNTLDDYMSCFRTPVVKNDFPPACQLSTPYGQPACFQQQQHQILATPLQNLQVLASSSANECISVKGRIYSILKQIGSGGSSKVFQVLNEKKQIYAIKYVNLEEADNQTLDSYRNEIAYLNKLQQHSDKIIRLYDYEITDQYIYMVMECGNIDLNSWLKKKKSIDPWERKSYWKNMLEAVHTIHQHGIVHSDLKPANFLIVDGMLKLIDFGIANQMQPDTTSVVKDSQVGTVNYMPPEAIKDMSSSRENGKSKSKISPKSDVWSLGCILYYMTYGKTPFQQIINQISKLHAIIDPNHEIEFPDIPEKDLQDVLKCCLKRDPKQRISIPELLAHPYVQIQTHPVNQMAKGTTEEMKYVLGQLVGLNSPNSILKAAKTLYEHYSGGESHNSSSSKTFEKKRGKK
# [6] = biological target: T3, ULK3 (Homo sapiens, UniProt Q6PHR2)
# T3 sequence (Q6PHR2 1-472): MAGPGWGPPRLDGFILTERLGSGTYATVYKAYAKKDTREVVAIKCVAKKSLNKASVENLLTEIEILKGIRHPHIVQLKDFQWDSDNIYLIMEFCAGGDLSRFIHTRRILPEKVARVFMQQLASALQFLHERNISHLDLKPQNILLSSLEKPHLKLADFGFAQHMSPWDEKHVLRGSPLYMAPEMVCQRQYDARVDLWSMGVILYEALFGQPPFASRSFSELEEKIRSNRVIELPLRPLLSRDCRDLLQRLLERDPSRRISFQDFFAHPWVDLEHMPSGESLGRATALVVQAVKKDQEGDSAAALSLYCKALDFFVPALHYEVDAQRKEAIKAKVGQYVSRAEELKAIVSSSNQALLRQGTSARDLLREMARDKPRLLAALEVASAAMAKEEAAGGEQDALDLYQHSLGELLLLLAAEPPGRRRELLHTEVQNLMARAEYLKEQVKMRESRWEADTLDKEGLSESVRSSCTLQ
# [7] = biological target: T4, VRK1 (Homo sapiens, UniProt Q99986)
# T4 sequence (Q99986 1-396): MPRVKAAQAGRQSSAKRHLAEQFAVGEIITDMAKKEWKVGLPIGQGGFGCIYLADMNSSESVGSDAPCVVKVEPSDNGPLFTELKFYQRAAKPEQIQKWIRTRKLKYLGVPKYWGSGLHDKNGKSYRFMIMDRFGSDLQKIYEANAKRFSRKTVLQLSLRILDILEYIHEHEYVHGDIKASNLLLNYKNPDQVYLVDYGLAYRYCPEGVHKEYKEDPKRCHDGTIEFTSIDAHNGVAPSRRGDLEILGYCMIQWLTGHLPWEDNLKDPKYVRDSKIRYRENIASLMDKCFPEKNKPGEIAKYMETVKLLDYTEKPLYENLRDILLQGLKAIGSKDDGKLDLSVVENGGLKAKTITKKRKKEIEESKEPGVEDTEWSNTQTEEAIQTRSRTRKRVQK
# [8] = biological target: MST4 (Homo sapiens, UniProt Q9P289)
# Sequence of MST4 (Q9P289 whole entry): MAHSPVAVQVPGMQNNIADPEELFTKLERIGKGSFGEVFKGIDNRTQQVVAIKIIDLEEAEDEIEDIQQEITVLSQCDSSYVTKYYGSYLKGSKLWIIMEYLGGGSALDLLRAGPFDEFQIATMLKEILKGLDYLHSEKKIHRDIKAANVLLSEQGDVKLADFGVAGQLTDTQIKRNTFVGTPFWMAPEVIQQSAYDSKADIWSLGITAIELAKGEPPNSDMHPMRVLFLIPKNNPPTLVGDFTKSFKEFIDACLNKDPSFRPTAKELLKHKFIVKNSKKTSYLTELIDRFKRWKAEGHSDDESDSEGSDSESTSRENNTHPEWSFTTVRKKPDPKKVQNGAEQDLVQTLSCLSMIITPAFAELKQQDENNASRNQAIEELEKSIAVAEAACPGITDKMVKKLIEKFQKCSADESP
# Sequence of TAF1 (P21675 whole entry): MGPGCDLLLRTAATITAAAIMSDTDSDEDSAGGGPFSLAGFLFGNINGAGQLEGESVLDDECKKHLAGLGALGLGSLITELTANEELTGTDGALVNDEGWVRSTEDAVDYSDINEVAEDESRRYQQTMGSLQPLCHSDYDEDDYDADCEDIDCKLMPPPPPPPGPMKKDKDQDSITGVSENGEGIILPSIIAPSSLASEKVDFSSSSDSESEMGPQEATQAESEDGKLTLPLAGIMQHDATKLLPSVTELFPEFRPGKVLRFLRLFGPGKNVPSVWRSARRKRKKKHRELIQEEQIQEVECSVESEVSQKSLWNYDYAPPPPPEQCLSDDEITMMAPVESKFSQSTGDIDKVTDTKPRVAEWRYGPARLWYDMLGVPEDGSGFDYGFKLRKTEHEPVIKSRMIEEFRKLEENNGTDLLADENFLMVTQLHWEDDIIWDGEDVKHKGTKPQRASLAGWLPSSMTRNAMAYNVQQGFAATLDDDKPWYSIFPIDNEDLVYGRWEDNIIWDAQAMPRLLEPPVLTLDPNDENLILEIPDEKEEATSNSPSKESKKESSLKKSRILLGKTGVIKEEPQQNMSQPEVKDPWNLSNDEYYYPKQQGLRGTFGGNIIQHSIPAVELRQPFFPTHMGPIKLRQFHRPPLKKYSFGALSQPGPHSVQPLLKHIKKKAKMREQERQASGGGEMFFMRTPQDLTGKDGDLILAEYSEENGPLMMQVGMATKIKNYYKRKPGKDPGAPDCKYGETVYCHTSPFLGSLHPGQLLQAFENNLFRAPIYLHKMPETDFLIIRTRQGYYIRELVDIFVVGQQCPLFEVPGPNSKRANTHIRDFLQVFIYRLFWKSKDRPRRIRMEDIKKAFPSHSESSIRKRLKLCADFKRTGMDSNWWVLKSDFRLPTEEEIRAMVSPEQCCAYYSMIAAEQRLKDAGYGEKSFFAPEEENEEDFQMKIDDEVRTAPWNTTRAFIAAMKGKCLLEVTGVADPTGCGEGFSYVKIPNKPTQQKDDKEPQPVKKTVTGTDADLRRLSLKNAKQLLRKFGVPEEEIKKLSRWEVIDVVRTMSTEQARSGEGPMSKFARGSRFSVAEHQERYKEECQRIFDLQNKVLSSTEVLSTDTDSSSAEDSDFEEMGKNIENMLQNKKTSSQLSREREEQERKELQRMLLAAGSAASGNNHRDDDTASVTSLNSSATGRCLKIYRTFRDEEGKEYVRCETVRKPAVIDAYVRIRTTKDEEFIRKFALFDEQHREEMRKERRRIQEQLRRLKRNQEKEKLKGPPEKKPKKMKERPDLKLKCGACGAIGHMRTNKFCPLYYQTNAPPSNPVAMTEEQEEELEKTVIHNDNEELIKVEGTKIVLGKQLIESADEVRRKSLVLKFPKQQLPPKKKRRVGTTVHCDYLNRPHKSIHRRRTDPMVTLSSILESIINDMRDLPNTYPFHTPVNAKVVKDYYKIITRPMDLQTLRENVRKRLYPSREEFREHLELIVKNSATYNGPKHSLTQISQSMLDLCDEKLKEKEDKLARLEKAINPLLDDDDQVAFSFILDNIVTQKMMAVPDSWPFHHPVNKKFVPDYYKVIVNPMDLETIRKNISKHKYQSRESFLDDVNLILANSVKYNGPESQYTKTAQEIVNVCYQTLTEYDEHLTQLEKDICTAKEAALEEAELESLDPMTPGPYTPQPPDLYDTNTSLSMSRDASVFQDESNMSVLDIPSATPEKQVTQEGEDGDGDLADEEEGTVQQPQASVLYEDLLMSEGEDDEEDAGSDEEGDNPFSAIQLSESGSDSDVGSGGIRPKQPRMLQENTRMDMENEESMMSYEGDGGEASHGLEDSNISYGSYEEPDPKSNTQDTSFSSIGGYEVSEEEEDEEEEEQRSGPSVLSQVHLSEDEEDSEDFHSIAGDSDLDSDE
# Sequence of SLK (Q9H2G2 whole entry): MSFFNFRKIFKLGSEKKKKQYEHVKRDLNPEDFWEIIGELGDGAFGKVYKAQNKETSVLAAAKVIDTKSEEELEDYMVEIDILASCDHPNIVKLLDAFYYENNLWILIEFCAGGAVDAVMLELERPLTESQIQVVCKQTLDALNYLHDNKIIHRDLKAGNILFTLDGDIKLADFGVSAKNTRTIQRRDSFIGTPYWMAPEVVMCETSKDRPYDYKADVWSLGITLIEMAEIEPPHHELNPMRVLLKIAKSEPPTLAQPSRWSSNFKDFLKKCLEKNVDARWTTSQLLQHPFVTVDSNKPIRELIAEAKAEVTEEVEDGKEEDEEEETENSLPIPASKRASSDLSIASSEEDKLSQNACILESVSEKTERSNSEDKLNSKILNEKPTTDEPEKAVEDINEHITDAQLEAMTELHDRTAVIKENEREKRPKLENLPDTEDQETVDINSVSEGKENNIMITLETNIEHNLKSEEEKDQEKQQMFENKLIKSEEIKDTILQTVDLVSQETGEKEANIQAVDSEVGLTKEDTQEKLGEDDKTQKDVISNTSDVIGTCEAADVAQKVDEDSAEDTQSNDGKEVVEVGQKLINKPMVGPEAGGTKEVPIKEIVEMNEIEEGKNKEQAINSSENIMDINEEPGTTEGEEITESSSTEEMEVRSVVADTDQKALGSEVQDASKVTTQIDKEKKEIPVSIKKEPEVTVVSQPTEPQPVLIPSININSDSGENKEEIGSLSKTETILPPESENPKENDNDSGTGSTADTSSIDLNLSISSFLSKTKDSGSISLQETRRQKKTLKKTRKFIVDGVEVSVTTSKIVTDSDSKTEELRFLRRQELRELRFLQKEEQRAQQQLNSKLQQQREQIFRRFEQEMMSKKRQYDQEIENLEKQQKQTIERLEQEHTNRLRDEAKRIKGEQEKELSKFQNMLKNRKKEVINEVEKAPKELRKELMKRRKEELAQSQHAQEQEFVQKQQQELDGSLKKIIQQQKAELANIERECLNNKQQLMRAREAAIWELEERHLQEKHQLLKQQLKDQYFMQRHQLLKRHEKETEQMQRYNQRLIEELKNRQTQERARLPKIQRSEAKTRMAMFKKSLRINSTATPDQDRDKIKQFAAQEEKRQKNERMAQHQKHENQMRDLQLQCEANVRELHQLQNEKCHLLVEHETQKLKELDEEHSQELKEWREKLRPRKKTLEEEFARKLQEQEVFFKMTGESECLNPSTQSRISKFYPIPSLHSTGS
smiles,measurement,setting,value
"Cc1cccc(-c2ccc(-c3cc4cnc(NCCCN5CCNCC5)nc4n(CCCCN)c3=O)c(Cl)c2)n1 [compound 29, 8-(4-Aminobutyl)-6-(2-chloro-4-(6-methylpyridin-2-yl)phenyl)-2-((3-(piperazin-1-yl)propyl)amino)pyrido[2,3-d]pyrimidin-7(8H)-one]",ΔTm 29,[1],3.5 °C
same,ΔTm 29,[2],8.8 °C
same,ΔTm 29,[3],0.2 °C
same,ΔTm 29,[4],-1.5 °C
same,ΔTm 29,[5],-0.4 °C
same,ΔTm 29,[6],5.8 °C
same,ΔTm 29,[7],0.4 °C
same,dTm MST4,[8],8.9 °C
"COc1ccc(O)c(Nc2ncc3cc(-c4ccc(-c5cccc(C)n5)cc4Cl)c(=O)n(CCCCN)c3n2)c1 [compound 34, 8-(4-Aminobutyl)-6-(2-chloro-4-(6-methylpyridin-2-yl)phenyl)-2-((2-hydroxy-5-methoxy-phenyl)amino)pyrido[2,3-d]pyrimidin-7(8H)-one]",dTm MST4,[8],8.3 °C
"Cc1cccc(-c2ccc(-c3cc4cnc(Nc5ccc(F)c(CO)c5)nc4n(CCCCN)c3=O)c(Cl)c2)n1 [compound 33, 8-(4-Aminobutyl)-6-(2-chloro-4-(6-methylpyridin-2-yl)phenyl)-2-((4-fluoro-3-(hydroxymethyl)phenyl)amino)pyrido[2,3-d]pyrimidin-7(8H)-one]",dTm MST4,[8],14.8 °C
"Cc1cccc(-c2ccc(-c3cc4cnc(NCCCc5ccc(N)cc5)nc4n(CCCCN)c3=O)c(Cl)c2)n1 [compound 25, 8-(4-Aminobutyl)-2-((3-(4-aminophenyl)propyl)amino)-6-(2-chloro-4-(6-methylpyridin-2-yl)phenyl)pyrido[2,3-d]pyrimidin-7(8H)-one]",ΔTm 25,[1],5.0 °C
same,ΔTm 25,[2],13.0 °C
same,ΔTm 25,[3],-0.1 °C
same,ΔTm 25,[4],-0.9 °C
same,ΔTm 25,[5],1.8 °C
same,ΔTm 25,[6],11.1 °C
same,ΔTm 25,[7],0.6 °C
same,dTm MST4,[8],9.7 °C
"Cc1cccc(-c2ccc(-c3cc4cnc(NC(CO)CO)nc4n(CCCCN)c3=O)c(Cl)c2)n1 [compound 24, 8-(4-Aminobutyl)-6-(2-chloro-4-(6-methylpyridin-2-yl)phenyl)-2-((1,3-dihydroxypropan-2-yl)amino)pyrido[2,3-d]pyrimidin-7(8H)-one]",ΔTm MR24 (24),[1],1.9 °C
same,ΔTm MR24 (24),[2],9.1 °C
same,ΔTm MR24 (24),[3],-0.1 °C
same,ΔTm MR24 (24),[4],-1.8 °C
same,ΔTm MR24 (24),[5],-3.0 °C
same,ΔTm MR24 (24),[6],7.2 °C
same,ΔTm MR24 (24),[7],0.4 °C
same,dTm MST4,[8],8.1 °C
"COc1cc(N2CCOCC2)ccc1Nc1ncc2cc(-c3ccc(-c4cccc(C)n4)cc3Cl)c(=O)n(CCCCN)c2n1 [compound 35, 8-(4-Aminobutyl)-6-(2-chloro-4-(6-methylpyridin-2-yl)phenyl)-2-((2-methoxy-4-morpholino-phenyl)amino)pyrido[2,3-d]pyrimidin-7(8H)-one]",dTm MST4,[8],9.2 °C
"CNc1ncc2cc(-c3ccc(-c4cccc(C)n4)cc3Cl)c(=O)n(C[C@H]3CC[C@H](N)CC3)c2n1 [compound 23, 23]",ΔTm 23,[1],8.3 °C
same,ΔTm 23,[2],3.3 °C
same,ΔTm 23,[3],-0.5 °C
same,ΔTm 23,[4],0.6 °C
same,ΔTm 23,[5],3.5 °C
same,ΔTm 23,[6],13.5 °C
same,ΔTm 23,[7],0.5 °C
"Cc1cccc(-c2ccc(-c3cc4cnc(NCCCN5CCOCC5)nc4n(CCCCN)c3=O)c(Cl)c2)n1 [compound 26, MR26]",ΔTm MR26 (26),[1],2.3 °C
same,ΔTm MR26 (26),[2],10.4 °C
same,ΔTm MR26 (26),[3],0.0 °C
same,ΔTm MR26 (26),[4],-1.6 °C
same,ΔTm MR26 (26),[5],-0.2 °C
same,ΔTm MR26 (26),[6],6.7 °C
same,ΔTm MR26 (26),[7],0.4 °C
same,dTm MST4,[8],10.6 °C
"COc1cc(N2CCN(C)CC2)ccc1Nc1ncc2cc(-c3ccc(-c4cccc(C)n4)cc3Cl)c(=O)n(CCCCN)c2n1 [compound 36, 8-(4-Aminobutyl)-6-(2-chloro-4-(6-methylpyridin-2-yl)phenyl)-2-((2-methoxy-4-(4-methylpiperazin-1-yl)phenyl)amino)pyrido[2,3-d]pyrimidin-7(8H)-one]",dTm MST4,[8],6.7 °C
"CNc1ncc2cc(-c3ccc(-c4cccc(C)n4)cc3Cl)c(=O)n(CCC3CCNCC3)c2n1 [compound 22, 6-(2-Chloro-4-(6-methylpyridin-2-yl)phenyl)-2-(methylamino)-8-(2-(piperidin-4-yl)ethyl)pyrido[2,3-d]pyrimidin-7(8H)-one]",ΔTm 22,[1],3.9 °C
same,ΔTm 22,[2],-3.0 °C
same,ΔTm 22,[3],0.3 °C
same,ΔTm 22,[4],0.2 °C
same,ΔTm 22,[5],3.7 °C
same,ΔTm 22,[6],9.7 °C
same,ΔTm 22,[7],-0.7 °C
"CNc1ncc2cc(-c3ccc(-c4cccc(C)n4)cc3Cl)c(=O)n(CCCCN)c2n1 [compound 20, MRLW5]",ΔTm MRLW5 (20),[1],9.1 °C
same,ΔTm MRLW5 (20),[2],1.8 °C
same,ΔTm MRLW5 (20),[3],0.0 °C
same,ΔTm MRLW5 (20),[4],0.6 °C
same,ΔTm MRLW5 (20),[5],2.7 °C
same,ΔTm MRLW5 (20),[6],8.6 °C
same,ΔTm MRLW5 (20),[7],0.0 °C
